Blank lines part the entries; values can stand above or below the compound they belong to.
Assays:
[1] = molecular target: ETB receptor (wildtype) (human) (UniProt P24530)
DP2 receptor = molecular target: T1, DP2 receptor (Homo sapiens, UniProt Q9Y5Y4); test: BRET-based G protein activation, wildtype DP2 receptor + Gαo biosensor in HEK293T cells; assay type: cell-based
T1 construct: host or cells: HEK293T (transient)
T1 sequence (Q9Y5Y4 1-395): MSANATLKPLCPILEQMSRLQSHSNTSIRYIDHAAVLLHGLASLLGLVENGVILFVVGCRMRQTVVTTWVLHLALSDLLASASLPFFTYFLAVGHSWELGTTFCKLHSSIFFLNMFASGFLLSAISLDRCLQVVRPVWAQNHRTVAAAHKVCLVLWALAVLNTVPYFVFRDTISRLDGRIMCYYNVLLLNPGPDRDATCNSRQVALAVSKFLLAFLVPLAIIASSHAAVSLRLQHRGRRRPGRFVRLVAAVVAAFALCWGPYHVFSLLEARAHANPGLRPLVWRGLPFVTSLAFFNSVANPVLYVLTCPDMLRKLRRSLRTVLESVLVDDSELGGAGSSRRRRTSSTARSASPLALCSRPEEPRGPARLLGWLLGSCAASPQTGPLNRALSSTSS
Experimental: Two days before BRET measurements were performed, HEK293T cells were transiently transfected with 3 µg of cDNAs containing TP receptor, ETB receptor, DP2 receptor, or S1P3 receptor and 3 µg of cDNAs containing Gβ3-T2A-cpVenus-Gγ9-IRES-Gαq-NLuc or Gβ3-T2A-cpVenus-Gγ9-IRES-Gαo1-NLuc using linear 25 kDa PEI reagent (polyethylenimine, PolyScience Inc., Hirschberg an der Bergstraße, Germany). The ratio between DNA and PEI was 1:3, and 50 µl serum-free DMEM was added per 1 µg DNA. The same amount of serum-free DMEM was also added separately to the PEI solution. DNA-DMEM and PEI-DMEM mixtures were incubated for 5 minutes, followed by incubation of the final mixture for another 10 minutes. […]
Two days before the actual measurement, HEK293T cells were transiently transfected and seeded on microplates. […] The measurements were performed using a Spark 20M plate reader (Tecan) at 37°C. Initially, the cells were measured for the baseline emission ratio. After the baseline measurement, 20 µl of external or internal buffer containing differing concentrations of either U-46619, 4-Ala ET-1, PGD,2 or S1P or external or internal buffer alone were added to the cells and measured. […] The cells were measured from the top and the donor luminescence (NLuc) was recorded at 415 to 470 nm and the acceptor luminescence (cpVenus) at 520 to 590 nm. Data were recorded using SparkControl^TM software. […]

[2] = molecular target: T2, DP2 receptor conformation sensor (Homo sapiens, UniProt Q9Y5Y4); test: FRET-based DP2 receptor conformation sensor, multiple-cell measurements in HEK293 cells or membrane fragments
T2 sequence (Q9Y5Y4 1-231 limits assumed): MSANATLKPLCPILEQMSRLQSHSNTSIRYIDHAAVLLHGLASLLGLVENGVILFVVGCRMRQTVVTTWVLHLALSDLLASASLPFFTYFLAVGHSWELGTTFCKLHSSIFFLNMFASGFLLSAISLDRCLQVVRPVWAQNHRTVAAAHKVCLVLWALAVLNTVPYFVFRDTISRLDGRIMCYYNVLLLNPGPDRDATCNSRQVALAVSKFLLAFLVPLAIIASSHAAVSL
T2 sequence (Q9Y5Y4 248-308 limits assumed): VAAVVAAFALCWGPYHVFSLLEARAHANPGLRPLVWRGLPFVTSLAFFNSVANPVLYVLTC
Experimental: (§1) HEK293 cells stably expressing the EP4 receptor, IP receptor, or DP2 receptor conformation sensor were seeded on 15 cm Ø dishes and grown until optical confluence. The cells were washed once with Dulbecco’s PBS (Capricorn Scientific GmbH), without Ca & Mg and Phenol Red (phosphate-buffered saline, PBS). After adding 5 ml PBS to the cells, the dish was treated with liquid nitrogen until the solution was visibly frozen. These dishes were stored at −80°C until the measurements were carried out. On the day of the measurement, the dishes were removed from the freezer and stored at room temperature until the buffer solution had thawed. The material was collected with a cell scraper and centrifuged (5000 rpm/5 min). […]
Intact HEK293 cells stably expressing the EP4 receptor, IP receptor, or DP2 receptor conformation sensors were counted, adjusted to 100,000–120,000 cells per well, and seeded on poly-L-lysine coated microplates one day before measurement. […]
We used a Spark 20M plate reader (Tecan, Männedorf, Switzerland) for multiple-cell FRET measurements of intact cells or membrane fragments. The cells were measured from the bottom and the donor fluorescent protein (mT2) was excited at 430 nm. First, the cells were measured for the baseline emission ratio. […] The emitted donor fluorescence (mT2) and acceptor fluorescence (eYFP) were recorded at 485 nm and 535 nm, respectively. […]

[3] = molecular target: EP4 receptor conformation sensor (Homo sapiens, UniProt P35408); test: FRET-based EP4 receptor conformation sensor stably expressed in HEK293 cells (intact, saponin-permeabilized, membrane fragments); assay type: cell-based
Experimental: (§2) The cells were washed once with external buffer and subsequently incubated 2 minutes for single-cell FRET measurements or 10 minutes for BRET measurements in 0.05% saponin (AppliChem, Darmstadt, Germany) dissolved in internal buffer. Afterward, the cells were washed five times for single-cell FRET measurements or three times for BRET measurements with internal buffer.
as §1, with “min). The supernatant was discarded, the pellet containing the membrane fragments was resuspended with external buffer containing 0.1% BSA and seeded on microplates.” for “min).”

[4] = molecular target: T3, EP2 receptor conformation sensor (Homo sapiens, UniProt P43116, DEL238-250); test: FRET-based EP2 receptor conformation sensor, single-cell measurements in HEK293 cells; details: saponin-permeabilized cells, 3000 nM PGE2, reference 20 µM PGE2
T3 construct: mT2 insertion and truncation after Q349; expressed in transfected cells
Experimental: as §2
The coverslips loaded with stably transfected HEK293 cells containing either the FFA3 receptor, α2A-AR CAM, or ETB receptor conformation sensors were clamped in an Attofluor^TM cell chamber and were washed once with external buffer. Afterward, they were side by side either permeabilized or directly measured at room temperature by the use of an inverted microscope (Elipse Ti2, Nikon, Düsseldorf, Germany), equipped with a 100× oil immersion objective (Plan Apo λ 100 x/1.45 oil ∞/0.17 WD 0.13, Nikon, Düsseldorf, Germany) and dual excitation and dual emission imaging capabilities. […] The fluorescence emission of mT2 and the respective YFP variant was simultaneously collected by a second beamsplitter (488, Chroma, Bellows Falls, Vermont, U.S.A.) and two emission filters (mT2: 474/27, Chroma; YFP: 544/23, Chroma). […] For all single-cell FRET experiments, cells were prospectively selected based on a continuous plasma-membrane fluorescence rim and appropriate fluorescence distribution to ensure a PM-dominant receptor signal. […]

S1P3 receptor = S1P3 receptor (Homo sapiens, UniProt Q99500); test: BRET-based G protein activation, wildtype S1P3 receptor + Gαq biosensor in HEK293T cells; assay type: cell-based
Source text: […] Afterward, the cells were washed five times for single-cell FRET measurements or three times for BRET measurements with internal buffer.
Concentration-response curves were fitted in GraphPad Prism 8 using nonlinear regression (log(agonist) vs. response - variable slope (four parameters)) with the hillslope set to 1, the bottom constrained to 0 and the top to 1 using the following equation: […]

[5] = molecular target: T4, TP receptor conformation sensor (Homo sapiens, UniProt P21731); test: FRET-based TP receptor conformation sensor, single-cell measurements in HEK293 cells; details: 1 µM U-46619, reference 8 µM U-46619
T4 sequence (P21731 1-311 limits assumed): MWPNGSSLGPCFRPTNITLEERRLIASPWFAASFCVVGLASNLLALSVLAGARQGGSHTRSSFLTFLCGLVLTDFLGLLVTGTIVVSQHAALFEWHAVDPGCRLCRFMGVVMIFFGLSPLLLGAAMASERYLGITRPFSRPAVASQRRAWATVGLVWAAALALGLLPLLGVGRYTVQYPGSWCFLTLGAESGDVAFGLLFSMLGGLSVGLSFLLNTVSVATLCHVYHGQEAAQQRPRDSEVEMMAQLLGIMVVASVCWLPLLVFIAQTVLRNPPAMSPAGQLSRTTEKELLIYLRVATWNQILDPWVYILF

[6] = saponin-permeabilized cells with 1 µM GTP

EP4 receptor conformation sensor, sequence (P35408 1-332 limits assumed): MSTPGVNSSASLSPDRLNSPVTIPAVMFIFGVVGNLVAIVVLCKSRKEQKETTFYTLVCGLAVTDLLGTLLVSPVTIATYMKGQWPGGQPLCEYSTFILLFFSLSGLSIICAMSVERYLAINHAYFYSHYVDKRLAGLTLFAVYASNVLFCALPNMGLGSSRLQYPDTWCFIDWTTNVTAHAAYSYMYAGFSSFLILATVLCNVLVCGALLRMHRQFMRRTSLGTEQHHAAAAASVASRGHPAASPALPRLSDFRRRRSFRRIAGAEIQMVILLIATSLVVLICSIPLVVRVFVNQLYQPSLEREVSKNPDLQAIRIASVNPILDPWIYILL
S1P3 receptor, sequence (Q99500 whole entry): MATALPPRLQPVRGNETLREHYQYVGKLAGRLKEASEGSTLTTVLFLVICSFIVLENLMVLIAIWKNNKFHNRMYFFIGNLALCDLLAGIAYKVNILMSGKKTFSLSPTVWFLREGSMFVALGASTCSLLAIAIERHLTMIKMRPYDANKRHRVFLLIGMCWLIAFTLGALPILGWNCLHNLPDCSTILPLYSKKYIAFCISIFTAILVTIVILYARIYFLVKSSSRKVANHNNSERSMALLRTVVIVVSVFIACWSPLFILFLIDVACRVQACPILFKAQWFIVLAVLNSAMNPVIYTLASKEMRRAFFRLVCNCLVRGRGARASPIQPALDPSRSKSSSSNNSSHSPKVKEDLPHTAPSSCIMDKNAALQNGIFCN
ETB receptor (wildtype) (human), sequence (P24530 27-442): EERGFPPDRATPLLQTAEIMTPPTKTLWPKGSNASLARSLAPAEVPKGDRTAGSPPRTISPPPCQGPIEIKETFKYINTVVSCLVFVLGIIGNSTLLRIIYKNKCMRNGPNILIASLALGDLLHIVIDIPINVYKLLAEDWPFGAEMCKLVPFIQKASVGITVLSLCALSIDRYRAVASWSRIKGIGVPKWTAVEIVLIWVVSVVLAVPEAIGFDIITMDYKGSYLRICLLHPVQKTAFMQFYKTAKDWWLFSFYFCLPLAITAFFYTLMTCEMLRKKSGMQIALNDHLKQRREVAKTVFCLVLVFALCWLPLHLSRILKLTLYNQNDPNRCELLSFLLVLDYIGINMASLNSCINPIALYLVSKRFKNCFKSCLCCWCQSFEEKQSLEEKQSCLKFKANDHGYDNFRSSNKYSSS
T3 sequence (P43116 with tags, fused parts or gaps DEL238-250): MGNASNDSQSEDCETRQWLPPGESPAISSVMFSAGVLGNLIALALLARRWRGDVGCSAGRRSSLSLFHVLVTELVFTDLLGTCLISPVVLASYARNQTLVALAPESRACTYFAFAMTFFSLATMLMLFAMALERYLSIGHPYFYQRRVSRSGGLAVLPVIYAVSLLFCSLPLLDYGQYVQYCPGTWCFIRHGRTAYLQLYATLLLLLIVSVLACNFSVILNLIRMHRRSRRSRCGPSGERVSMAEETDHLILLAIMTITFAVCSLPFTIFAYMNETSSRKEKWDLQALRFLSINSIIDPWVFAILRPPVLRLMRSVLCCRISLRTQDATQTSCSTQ

Compound: 4-Ala endothelin-1 (peptide)
BRET-based Gαq biosensor activation in HEK293T cells, concentration-response to 4-Ala ET-1: change of agonist potency in saponin-permeabilized cells with 1 µM GTP against intact cells (Figure 4F) [1]: 15 fold

Compound: CCCCC[C@H](O)/C=C/[C@H]1C(=O)C[C@H](O)[C@@H]1C/C=C\CCCC(=O)O [PGD2, (Z)-7-[(1R,2R,5S)-5-hydroxy-2-[(E,3S)-3-hydroxyoct-1-enyl]-3-oxocyclopentyl]hept-5-enoic acid]
EC50 (DP2 receptor; intact HEK293T cells): 0.562 nM | EC50 (DP2 receptor; [6]): 20.4 nM | response to the agonist ([2]; intact cells): strong response | response to the agonist ([2]; membrane fragments): almost no response

Compound: CCCCCC(O)/C=C/C1C2CC(CO2)C1C/C=C\CCCC(=O)O (stereo not drawn) [U-46619, 9,11-dideoxy-9α,11α-methanoepoxy-prosta-5Z,13E-dien-1-oic acid]
response to the test concentration (about 10 times EC50) normalized to saturating concentration ([5]; intact cells): full response | response to the test concentration normalized to saturating concentration ([5]; saponin-permeabilized cells): 59% ± 1

Further lines, results first:

activation at 0.3 µM ([3]; HEK293, read-out: normalized response to 10 times EC50): 53% | response to 10 times EC50 ([3]; saponin-permeabilized cells, internal buffer supplemented with 5 mM ATP and 25 µM GTP): 56% ± 1 | response to the test concentration normalized to saturating concentration ([3]; saponin-permeabilized cells, internal buffer, 300 nM PGE2, reference 20 µM PGE2): 56% ± 1 | response to the test concentration normalized to saturating concentration [4]: about 51% ± 6
Compound: CCCCC[C@H](O)/C=C/[C@H]1[C@H](O)CC(=O)[C@@H]1C/C=C\CCCC(=O)O [PGE2, (Z)-7-[(1R,2R,3R)-3-hydroxy-2-[(E,3S)-3-hydroxyoct-1-enyl]-5-oxocyclopentyl]hept-5-enoic acid]

EC50 (S1P3 receptor; intact HEK293T cells): 28.2 nM | EC50 (S1P3 receptor; [6]): 0.55 nM
Compound: CCCCCCCCCCCCC/C=C/[C@@H](O)[C@@H](N)COP(=O)(O)O [S1P, Sphingosine-1-phosphate]
